Holding throughout (assay): Enzyme Assay
What all share (conditions): pH 7.4; 30 °C

Test [1] deals with Casein kinase I isoform alpha (Homo sapiens, UniProt P48729). On the procedure:
(§1) Casein kinase activities were determined under the conditions as described by Huang et al (1982).

Test [2] deals with Casein kinase II subunit alpha (Homo sapiens, UniProt P68400). On the procedure: as §1
The target of test [3] is Calcium/calmodulin-dependent protein kinase II inhibitor 2 (Bos taurus, UniProt A5D7T0).
Chain of Calcium/calmodulin-dependent protein kinase II inhibitor 2 (A5D7T0 whole entry): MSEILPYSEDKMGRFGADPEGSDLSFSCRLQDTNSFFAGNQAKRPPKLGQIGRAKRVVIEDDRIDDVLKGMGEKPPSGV
For test [4], the target named is Protein kinase C alpha type (Homo sapiens, UniProt P17252).
The target in test [5] is cAMP-dependent protein kinase type I-alpha regulatory subunit (Bos taurus, UniProt P00514).
Chain of cAMP-dependent protein kinase type I-alpha regulatory subunit (P00514 whole entry): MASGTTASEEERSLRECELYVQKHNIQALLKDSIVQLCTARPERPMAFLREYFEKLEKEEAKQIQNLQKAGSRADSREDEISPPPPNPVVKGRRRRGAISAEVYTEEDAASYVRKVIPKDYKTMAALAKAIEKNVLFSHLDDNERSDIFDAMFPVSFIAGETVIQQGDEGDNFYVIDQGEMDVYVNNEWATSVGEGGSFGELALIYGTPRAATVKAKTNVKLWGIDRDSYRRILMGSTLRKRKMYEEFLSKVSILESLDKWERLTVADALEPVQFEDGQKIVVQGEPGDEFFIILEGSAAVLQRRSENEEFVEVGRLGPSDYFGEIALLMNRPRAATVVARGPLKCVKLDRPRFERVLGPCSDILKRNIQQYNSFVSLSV

Usually IC50 stands for the point on the concentration scale where inhibition reaches its midpoint.

Chain of Casein kinase I isoform alpha (P48729 whole entry, canonical isoform): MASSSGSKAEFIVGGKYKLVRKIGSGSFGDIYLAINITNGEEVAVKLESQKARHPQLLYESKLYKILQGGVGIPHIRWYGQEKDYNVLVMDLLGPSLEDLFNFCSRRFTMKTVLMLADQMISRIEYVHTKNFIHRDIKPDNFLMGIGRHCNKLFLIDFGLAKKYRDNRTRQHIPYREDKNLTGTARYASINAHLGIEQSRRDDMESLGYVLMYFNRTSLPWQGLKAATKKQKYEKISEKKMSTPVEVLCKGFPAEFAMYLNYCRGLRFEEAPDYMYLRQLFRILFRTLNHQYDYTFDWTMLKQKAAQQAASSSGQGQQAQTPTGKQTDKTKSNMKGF
Chain of Casein kinase II subunit alpha (P68400 whole entry): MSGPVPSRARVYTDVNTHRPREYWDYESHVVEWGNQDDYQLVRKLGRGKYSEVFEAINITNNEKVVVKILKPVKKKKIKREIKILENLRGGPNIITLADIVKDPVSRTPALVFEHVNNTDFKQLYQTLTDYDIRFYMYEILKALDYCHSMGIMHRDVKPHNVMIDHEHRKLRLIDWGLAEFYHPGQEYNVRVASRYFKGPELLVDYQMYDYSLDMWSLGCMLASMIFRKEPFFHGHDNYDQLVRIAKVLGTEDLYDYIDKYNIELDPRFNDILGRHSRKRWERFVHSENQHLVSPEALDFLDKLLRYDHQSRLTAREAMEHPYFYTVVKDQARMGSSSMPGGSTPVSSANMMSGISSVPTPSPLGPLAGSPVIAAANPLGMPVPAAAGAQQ

For `NCCNS(=O)(=O)c1cccc2cnccc12` [Isoquinoline-5-sulfonic acid (2-amino-ethyl)-amide], the IC50 was 110 µM in test [1]; above 300 µM in test [2]; 58 µM in test [3]; 18 µM in test [4]; 3.6 µM in test [5].
Take `NCCNS(=O)(=O)c1cccc2ccncc12` [Isoquinolinesulfonamide, CKI-6]: the half-maximal inhibitory concentration (IC50) is 50 µM in test [1]; above 300 µM in test [2]; 840 µM in test [3]; above 1000 µM in test [4]; above 1000 µM in test [5].
Consider `NCCNS(=O)(=O)c1ccc(Cl)c2ccncc12` [Isoquinolinesulfonamide, CKI-7], for which the IC50 is 9.5 µM in test [1]; 90 µM in test [2]; 195 µM in test [3]; above 1000 µM in test [4]; 550 µM in test [5].

(Values after BindingDB's records for PubMed 2925675 (Nagoya University School of Medicine, 1989).)
